Assay results reported in a melting point compilation (Tetko et al.).

Structure (SMILES) | melting point
Cn1c(=O)c(C2=NNC(=O)C2=Cc2cccc(O)c2)c(O)c2ccccc21 | 290 °C
CC(=O)CC(C)(C)C | -64 °C
O=[N+]([O-])c1ccc2c(c1)-c1ccc([N+](=O)[O-])c3cccc-2c13 | 223 °C
O=C1NC2C=CC1C2 (single isomer, unassigned; (-)) | 92 to 100 °C
COc1ccc(Br)c2c1C(=NNc1ccc([N+](=O)[O-])cc1[N+](=O)[O-])C2 | 288 to 289 °C
CC(c1ccccc1)C(C)(C)O (stereo not given) | 46 °C
NCC(O)C(O)C(O)C(O)CO (stereo not given) | 127 °C
ClCc1ccc(OCc2ccccc2)c(OCc2ccccc2)c1 | 41 to 44 °C
O=C(Cc1ccccc1)OCc1ccccc1[N+](=O)[O-] | 54 °C
OC(CCN1CCCCC1)(c1ccccc1)c1ccccc1 | 120 °C
CCN1CC2(COC)C(O)CC(OC)C34C5CC6(O)C(O)C5C(O)(C(O)C6OC)C(C(OC)C23)C14 (stereo not given) | 132 °C
Cn1c(=O)c2c(ncn2CN2CCOCC2)n(C)c1=O | 177 °C
C=C(C)C(=O)O | 16 °C
COc1cccc(C2NC(=O)NC(C)=C2C(=O)OC(C)C)c1OC (stereo not given) | 167 °C
CCSc1nnc(CCn2c(C)nc3ccccc32)n1-c1ccccc1 | 110 °C
Cc1ccc(C(=O)Cl)o1 | 29 °C
O=C(O)C1(c2ccc(Cl)cc2)CCC1 | 80 to 90 °C
CCOC(=O)c1c(-c2ccccc2)csc1NC(=O)CCl | 99 to 100 °C
Cc1ccc([N+](=O)[O-])cc1N=C=S | 60 to 62 °C
Nc1ccc(S(=O)(=O)Nc2ncccn2)cc1 | 254 °C
Clc1nc[nH]c1Cl | 185 to 186 °C
COc1ccc(C(=O)CCCCl)cc1 | 32 °C
CCOC(=O)CSCCC1NC(C(=O)O)CS1 (stereo not given) | 142 °C
Cc1nn(-c2ccccc2)c2oc3sccc3c(=S)c12 | 194 to 196 °C
O=C(O)CCCCCCCCCCCCCCC(=O)O | 124 to 126 °C

Structure (SMILES) | melting point
Cc1ccc(C(=O)NC(=Cc2ccccc2)C(=O)O)cc1 | 229 to 230 °C
O=S(=O)(Cl)Cc1ccc(Cl)c(Cl)c1 | 65 to 68 °C
Cc1ccc(C(=CCN2CCCC2)c2ccccn2)cc1 | 60 °C
CC(=O)Nc1ccc(C(=O)O)cc1[N+](=O)[O-] | 226 °C
CCC(C1CCCCC1)C1CCCCC1 | -23.5 °C
CCCC(=O)c1cc2cc(Br)cc(Br)c2oc1=O | 200 to 202 °C
Cc1nnsc1C(=O)O | 185 °C
O=C(O)Cc1ccccc1C(F)(F)F | 100 to 102 °C
CC1CC(C)C(=O)C(C(O)CC2CC(=O)NC(=O)C2)C1 (stereo not given) | 119 °C
CC(=O)Nc1ccc(OC(F)(F)F)cc1 | 115 to 117 °C
COc1cncc(Br)c1 | 31 °C
OCc1c(Br)c(Br)c(Br)c(Br)c1Br | 264 to 265 °C
c1ccc(-c2c3ccccc3c(-c3ccccc3)c3c(-c4ccccc4)c4ccccc4c(-c4ccccc4)c23)cc1 | 332 °C
C1CCCCNCCC1 | -19 °C
CCCCCCCCCCCC(=O)NC | 68 °C
Brc1cccc2c(/C=N/Nc3ccccc3)cccc12 | 105 °C
O=C(Nc1ccccc1)OCCc1ccc(CCOC(=O)Nc2ccccc2)cc1 | 213 °C
O=c1on(-c2ccccc2)cc1-c1ccccc1 | 175 °C
CC(=O)C(C=N)c1ccccc1 (stereo not given) | 96 °C
OCc1ccc(OC2CCOCC2)cc1 | 81.5 to 82.5 °C
COc1ccc(Nc2nc(N)nnc2-c2ccccc2)cc1 | 293 °C
CS(=O)(=O)c1noc(-c2cccs2)c1C#N | 167 to 168 °C
O=[N+]([O-])c1ccc(N/N=C2\Cc3c2ccc2ccccc32)c([N+](=O)[O-])c1 | 273 to 276 °C
CC(=O)c1ccsc1 | 60 °C
NC(=S)CCn1cccc(C(F)(F)F)c1=O | 154 to 155 °C
